Results taken from the OPERA property sets (Mansouri et al. 2018).

| logP | Structure (SMILES) |
| --- | --- |
| -2.55 | NCCCCCCCC(=O)O |
| -3.05 | O=C(O)C1CCNCC1 |
| -2.54 | CCC(N)C(=O)O (stereo not drawn) |
| -2.78 | NC1(C(=O)O)CC1 |
| -2.45 | O=C(O)CCN1CCCCC1 |
| -2.31 | O=C(O)C1CCCCN1 (stereo not drawn) |
| -1.87 | NC1(C(=O)O)CCCCC1 |
| -3.03 | NCCCCCCC(=O)O |
| -3.05 | NCCC(=O)O |
| -2.28 | NC1(C(=O)O)CCCC1 |
| -2.91 | CN(C)CC(=O)O |
| -2.89 | O=C(O)C1CCCNC1 (stereo not drawn) |

| Structure (SMILES) | logP |
| --- | --- |
| O=C(O)C1CCN1 (stereo not drawn) | -2.84 |
